One test concerns the target T1, mPGES-1 (Homo sapiens, UniProt O14684).
T1 sequence (O14684 1-152): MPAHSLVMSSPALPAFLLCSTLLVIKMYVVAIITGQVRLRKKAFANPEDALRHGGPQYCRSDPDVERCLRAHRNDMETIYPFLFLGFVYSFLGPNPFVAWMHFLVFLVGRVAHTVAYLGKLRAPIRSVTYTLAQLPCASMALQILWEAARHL
To be noted: literature values (Thoren et al. 2000; Mancini et al. 2001; Quraishi et al. 2002); read-out: IC50 for inhibition of mPGES-1; cited from earlier work.

The nature of test [1]: PGE2-induced febrile response after intracerebroventricular injection, telemetric body temperature. The test is classed as in vivo, mice. Particulars: 4 nmol PGE2 intracerebroventricular. The method, then: We confirmed the absence of overt physiological signaling defects by ensuring that PGE2-evoked (the missing product in mPGESl1^−/− mice that is generated following LPS challenge) pyresis was indeed intact in mPGES1^−/− mice. We performed intracerebroventricular injections of PGE2 (4 nmol in 2 μl artificial cerebrospinal fluid) and then monitored using telemetry the body temperature in awake and unrestrained animals. […] Thus, a pronounced temperature increase was seen almost immediately after the PGE2 injection. It reached its peak after 30 minutes and lasted for about 1.5 hour. To determine that the elicited febrile response was due to specific activation of PGE2 receptors and not represented an unspecific response, we injected the same amount of PGE2 into EP3 receptor^−/− mice as we had injected into mPGES-1^−/− mice.
Telemetric temperature recordings: One week prior to each experiment, a temperature transmitter (Data Science International) was implanted into the peritoneal cavity of each mouse. Recordings were made via a receiver located beneath the cage and the data were fed into a computer. Recordings started at least one hour prior to surgery or injection, and were obtained every second minute throughout the entire session.
Intracerebroventricular injections of PGE2: Mice were mounted in a stereotaxic frame under anesthesia with 1% isoflurane in a 30/70% mixture of O2/N2, and kept at 37° C. through a feedback controlled heating pad. A drill hole was made in the skull through which a 29 gauge (o.d.) needle connected by a silicon tube to a Hamilton syringe was inserted into the lateral ventricle (0.5 mm posterior to Bregma, 1 mm lateral to midline, and 2.5 mm vertical to the skull surface), and 4 nmol PGE2 in 2 μl artificial cerebrospinal fluid was injected during 1 min. Control injection consisted of artificial cerebrospinal fluid. Two minutes after the end of the injection, the needle was removed, the skin sutured, and the gas anesthesia turned off. All animals were awake within 5 min after injection and were immediately returned to their home cage for resumed body temperature recordings.

As a reminder, the IC50 is the concentration needed to halve the response being measured.

Take `CCCCCC=CCC=CC=CC=CC(SCC(NC(=O)CCC(N)C(=O)O)C(=O)NCC(=O)O)C(O)CCCC(=O)O` [leukotriene C4, 5(S)-hydroxy-6(R)-S-glutathionyl-7,9-trans-11,14-cis-eicosa-tetraenoic acid]: the IC50 at mPGES-1 was 5 µM.
`CCCCC[C@H](O)/C=C/[C@H]1[C@H](O)CC(=O)[C@@H]1C/C=C\CCCC(=O)O` (relative stereo) [PGE2, 11α, 15(S)-dihydroxy-9-ketoprosta-5-cis-13-trans-dienoic acid]: in test [1], the “duration of temperature increase” value is on record as “about 1.5 hour” and the “time to peak of temperature increase after injection” value was found to be 30 min. Moreover, the febrile response result in test [1] (EP3 receptor−/− mice) is “did not display any febrile response”. Also, in test [1] (mPGES+/+ mice), the temperature elevation entry is “rapid and pronounced temperature elevation”. Moreover, the febrile response entry in test [1] (mPGES-1−/− mice) was “rapid and strong febrile response”.

(Values after US20070099857A1, “Methods and means for inhibiting fever” (priority 2003, published 2007).)
